Measurements from PubChem BioAssay (NCI).
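Assay format: 96-well plates, 48-hour exposure. At the GI50, growth is halved. TGI: concentration producing complete growth inhibition.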

Tests used:
Assay in all cases: inhibition of tumour cell growth, NCI panel, 48 h
COLO 205 colon = system: COLO 205 colon
K-562 leukemia = system: K-562 leukemia
OVCAR-4 ovarian = system: OVCAR-4 ovarian
MDA-N = system: MDA-N
RPMI-8226 leukemia = system: RPMI-8226 leukemia
SF-539 CNS = system: SF-539 CNS
CCRF-CEM leukemia = system: CCRF-CEM leukemia
786-0 renal = system: 786-0 renal
EKVX NSCLC = system: EKVX NSCLC
ACHN renal = system: ACHN renal
OVCAR-5 ovarian = system: OVCAR-5 ovarian

Compound | TGI (COLO 205 colon) | TGI (K-562 leukemia) | TGI (OVCAR-4 ovarian) | TGI (MDA-N) | TGI (RPMI-8226 leukemia) | TGI (SF-539 CNS) | TGI (CCRF-CEM leukemia) | TGI (786-0 renal) | TGI (EKVX NSCLC) | TGI (ACHN renal) | TGI (OVCAR-5 ovarian) | GI50 (COLO 205 colon) | GI50 (EKVX NSCLC) | GI50 (K-562 leukemia) | GI50 (ACHN renal) | GI50 (OVCAR-5 ovarian) | GI50 (OVCAR-4 ovarian) | GI50 (RPMI-8226 leukemia) | GI50 (SF-539 CNS) | GI50 (CCRF-CEM leukemia)
COc1ccc2[nH]c(CCNC(=O)c3cc([N+](=O)[O-])cc([N+](=O)[O-])c3)cc2c1 | > 100 µM | > 100 µM | > 100 µM | > 100 µM | > 100 µM | > 100 µM | > 100 µM | > 100 µM | – | – | – | – | – | – | – | – | – | – | – | –
Cc1cc2nc3n[nH]c(N)c3nc2cc1C | > 100 µM | > 100 µM | > 100 µM | > 100 µM | > 100 µM | – | > 100 µM | > 100 µM | > 100 µM | > 100 µM | > 100 µM | – | – | – | – | – | – | – | – | –
COc1ccc(/C=C2\C=Cc3ccccc32)cc1OC | > 100 µM | > 100 µM | > 100 µM | > 100 µM | – | > 100 µM | > 100 µM | > 100 µM | > 100 µM | > 100 µM | > 100 µM | – | – | – | – | – | – | – | – | –
CC1=C2C(O)C(C(C)C(=O)NCC(C)C)CCC2(C)C=CC1=O (stereo not drawn) | > 100 µM | > 100 µM | > 100 µM | – | > 100 µM | > 100 µM | > 100 µM | – | > 100 µM | – | > 100 µM | – | – | – | – | – | – | – | – | –
Cc1ccc(Nc2nc(=S)[nH]c3[nH]ncc23)cc1 | > 100 µM | > 100 µM | > 100 µM | – | > 100 µM | > 100 µM | > 100 µM | > 100 µM | > 100 µM | > 100 µM | > 100 µM | – | – | – | – | – | – | – | – | –
CCCCCCCCCOC(=O)c1cnc(Cl)cn1 | 51.1 µM | > 100 µM | 71.1 µM | – | 63.5 µM | 58.1 µM | > 100 µM | > 100 µM | 41.6 µM | 33.5 µM | 70.8 µM | – | – | – | – | – | – | – | – | –
CSC(SC)=C1CC(=O)Nc2ccccc2C1=O | > 100 µM | 95.8 µM | > 100 µM | > 100 µM | – | > 100 µM | 52.7 µM | > 100 µM | > 100 µM | > 100 µM | > 100 µM | – | – | – | – | – | – | – | – | –
CCOC(=O)C1(C(=O)OCC)C[C@]23OCCC(=O)[C@H]2[C@H]2C(=O)OC(C)(C)O[C@]23C1 | > 100 µM | – | > 100 µM | > 100 µM | > 100 µM | > 100 µM | > 100 µM | > 100 µM | > 100 µM | > 100 µM | > 100 µM | – | – | – | – | – | – | – | – | –
CCc1ccc(-c2nnc(COc3ccc(-c4nc5ccc(C)cc5[nH]4)cc3OC)o2)cc1 | 96 µM | > 100 µM | 3.53 µM | – | 5.75 µM | 3.21 µM | > 100 µM | – | > 100 µM | 3.19 µM | > 100 µM | 8.39 µM | 4.14 µM | 3.12 µM | 1.78 µM | 5.21 µM | 1.74 µM | 2.26 µM | 1.7 µM | 3.06 µM
NC(N)=NCCCC(N=c1c2ccccc2n(O)c2ccccc12)C(=O)O (stereo not drawn) | > 100 µM | > 100 µM | > 100 µM | – | 75.7 µM | – | > 100 µM | > 100 µM | > 100 µM | > 100 µM | > 100 µM | – | – | – | – | – | – | – | – | –
